Laboratory results taken from patent US12391737B2, “Soluble NPY2 receptor agonists” (Boehringer Ingelheim International GmbH, priority 2020, dated 2025).

Assays:
Solubility determination = conditions: for Sol6: pH 6; for Sol7: pH 7
Procedure, shortened: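 First, TFA-salt peptide was added to 0.1 M sodium diphosphate (pH 6.4 or 7.0) to 10 mg/ml and shaken 2 h at room temperature. Next, insoluble material was filtered off. Finally, filtrate and control, each 1 mg/ml in 50% acetonitrile, were compared by reversed-phase chromatography.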

[1] = target: T1, Human Neuropeptide Y2 Receptor (Homo sapiens, UniProt P49146); experiment: Radioligand binding competition assay (RLB); conditions: Table 3, 125I-PYY(1-36) competition; read-out: Ki
T1 construct: purchased CHEMICON HTS066M
T1 sequence (P49146 1-381): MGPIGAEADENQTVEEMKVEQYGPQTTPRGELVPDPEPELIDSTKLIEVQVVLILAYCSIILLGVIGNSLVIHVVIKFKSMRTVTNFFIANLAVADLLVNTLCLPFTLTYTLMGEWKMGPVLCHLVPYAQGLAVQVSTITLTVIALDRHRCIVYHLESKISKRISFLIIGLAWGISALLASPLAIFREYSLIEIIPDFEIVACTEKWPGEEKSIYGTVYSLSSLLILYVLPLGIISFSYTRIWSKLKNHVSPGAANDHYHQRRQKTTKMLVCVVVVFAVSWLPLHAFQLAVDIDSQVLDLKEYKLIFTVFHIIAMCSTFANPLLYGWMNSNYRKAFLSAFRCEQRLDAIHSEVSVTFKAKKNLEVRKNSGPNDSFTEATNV
Procedure, shortened: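 Peptides were serially diluted from 1 mM DMSO stocks and competed for radioligand binding to receptor membranes (0.5 μg/well) over 2 h at room temperature, pH 7.4 HEPES buffer. Bound radioactivity on filters was counted by scintillation, and IC50 was derived by nonlinear regression.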

Compound	Sol6 (Solubility determination) [mg/mL]	Sol7 (Solubility determination) [mg/mL]	Ki [1] [nM]
CC(C)CC(=O)N[C@@H](C)C(=O)N1CCC[C@H]1C(=O)N[C@@H](CCC(=O)O)C(=O)N[C@@H](CCCCNC(=O)CCCCCNC(=O)CC[C@H](NC(=O)CCCCCCCCCCCCCCCCC(=O)O)C(=O)O)C(=O)N1CCC[C@H]1C(=O)N[C@@H](CCC(=O)O)C(=O)N[C@@H](CCC(=O)O)C(=O)N[C@@H](CC(=O)O)C(=O)N[C@@H](C)C(=O)N[C@H](C(=O)N1CCC[C@H]1C(=O)N[C@@H](CCC(=O)O)C(=O)N[C@@H](CCC(=O)O)C(=O)N1CCC[C@H]1C(=O)N[C@@H](CCC(N)=O)C(=O)N[C@@H](CCCNC(=N)N)C(=O)N[C@@H](Cc1ccc(O)cc1)C(=O)N[C@@H](Cc1ccc(O)cc1)C(=O)N[C@H](C(=O)N[C@@H](CO)C(=O)N[C@@H](CC(C)C)C(=O)N[C@@H](CCCNC(=N)N)C(=O)N[C@@H](Cc1c[nH]cn1)C(=O)N[C@@H](Cc1ccc(O)cc1)C(=O)N[C@@H](Cc1ccc(O)cc1)C(=O)N[C@@H](CC(N)=O)C(=O)N[C@@H](Cc1c[nH]c2ccccc12)C(=O)N[C@@H](CC(C)C)C(=O)N[C@H](C(=O)N[C@@H](CCCNC(=N)N)C(=O)N[C@@H](CCC(N)=O)C(=O)N[C@@H](CCCNC(=N)N)C(=O)N[C@@H](Cc1ccc(O)cc1)C(N)=O)[C@@H](C)O)C(C)C)[C@@H](C)O [Compound 187, N{alpha-4}-(3-methylbutanoyl)-N{epsilon-7}-(6-[(4S)-4-carboxy-4-(17-carboxyheptadecanamido)butanamido]hexanoyl)-[4A,7K,9E,13T,17P,18Q,22V,28Y,30W,31L]-hPYY(4-36)]	7.8	>10.0	15.3
CC(C)CC(=O)N[C@@H](C)C(=O)N1CCC[C@H]1C(=O)N[C@@H](CCC(=O)O)C(=O)N[C@@H](CCCCNC(=O)CCCCCNC(=O)CC[C@H](NC(=O)CCCCCCCCCCCCCCCCC(=O)O)C(=O)O)C(=O)N1CCC[C@H]1C(=O)N[C@@H](CCC(=O)O)C(=O)N[C@@H](C)C(=O)N[C@@H](CC(=O)O)C(=O)N[C@@H](C)C(=O)N[C@@H](CO)C(=O)N1CCC[C@H]1C(=O)N[C@@H](CCC(=O)O)C(=O)N[C@@H](CCC(=O)O)C(=O)N[C@@H](CC(C)C)C(=O)N[C@@H](CCC(N)=O)C(=O)N[C@@H](CCCNC(=N)N)C(=O)N[C@@H](Cc1ccc(O)cc1)C(=O)N[C@@H](Cc1ccc(O)cc1)C(=O)N[C@H](C(=O)N[C@@H](CCC(=O)O)C(=O)N[C@@H](CC(C)C)C(=O)N[C@@H](CCCNC(=N)N)C(=O)N[C@@H](Cc1c[nH]cn1)C(=O)N[C@@H](Cc1ccc(O)cc1)C(=O)N[C@@H](Cc1ccc(O)cc1)C(=O)N[C@@H](CC(N)=O)C(=O)N[C@@H](Cc1c[nH]c2ccccc12)C(=O)N[C@@H](CC(C)C)C(=O)N[C@H](C(=O)N[C@@H](CCCNC(=N)N)C(=O)N[C@@H](CCC(N)=O)C(=O)N[C@@H](CCCNC(=N)N)C(=O)N[C@@H](Cc1ccc(O)cc1)C(N)=O)[C@@H](C)O)C(C)C [Compound 171, N{alpha-4}-(3-methylbutanoyl)-N{epsilon-7}-(6-[(4S)-4-carboxy-4-(17-carboxyheptadecanamido)butanamido]hexanoyl)-[4A,7K,9E,10A,18Q,22V,23E,28Y,30W,31L]-hPYY(4-36)]	10.0	10.0	2.83
CC(C)CC(=O)N[C@@H](C)C(=O)N1CCC[C@H]1C(=O)N[C@@H](CCC(=O)O)C(=O)N[C@@H](CCCCNC(=O)CCCCCNC(=O)CC[C@H](NC(=O)CCCCCCCCCCCCCCCCC(=O)O)C(=O)O)C(=O)N1CCC[C@H]1C(=O)N[C@@H](CCC(=O)O)C(=O)N[C@@H](CCC(=O)O)C(=O)N[C@@H](CC(=O)O)C(=O)N[C@@H](CCC(=O)O)C(=O)N[C@H](C(=O)N1CCC[C@H]1C(=O)N[C@@H](CCC(=O)O)C(=O)N[C@@H](CCC(=O)O)C(=O)N[C@@H](CC(C)C)C(=O)N[C@@H](CCC(N)=O)C(=O)N[C@@H](CCCNC(=N)N)C(=O)N[C@@H](Cc1ccc(O)cc1)C(=O)N[C@@H](Cc1ccc(O)cc1)C(=O)N[C@H](C(=O)N[C@@H](CO)C(=O)N[C@@H](CC(C)C)C(=O)N[C@@H](CCCNC(=N)N)C(=O)N[C@@H](Cc1c[nH]cn1)C(=O)N[C@@H](Cc1ccc(O)cc1)C(=O)N[C@@H](Cc1ccc(O)cc1)C(=O)N[C@@H](CC(N)=O)C(=O)N[C@@H](Cc1c[nH]c2ccccc12)C(=O)N[C@@H](CC(C)C)C(=O)N[C@H](C(=O)N[C@@H](CCCNC(=N)N)C(=O)N[C@@H](CCC(N)=O)C(=O)N[C@@H](CCCNC(=N)N)C(=O)N[C@@H](Cc1ccc(O)cc1)C(N)=O)[C@@H](C)O)C(C)C)[C@@H](C)O [Compound 8, N{alpha-4}-(3-methylbutanoyl)-N{epsilon-7}-(6-[(4S)-4-carboxy-4-(17-carboxyheptadecanamido)butanamido]hexanoyl)[4A,7K,9E,12E,13T,18Q,22V,28Y,30W,31L]-hPYY(4-36)]	9.7	9.6	106

The next compounds have a lower Ki [1] than those just listed; values first:

Sol6 (Solubility determination) [mg/mL]	Sol7 (Solubility determination) [mg/mL]	Ki [1] [nM]	Compound
9.7	9.6	1.93	CC(C)CC(=O)N[C@@H](C)C(=O)N1CCC[C@H]1C(=O)N[C@@H](C)C(=O)N[C@@H](CCCCNC(=O)CCCCCNC(=O)CC[C@H](NC(=O)CCCCCCCCCCCCCCCCC(=O)O)C(=O)O)C(=O)N1CCC[C@H]1C(=O)N[C@@H](CCC(=O)O)C(=O)N[C@@H](CCC(=O)O)C(=O)N[C@@H](CC(=O)O)C(=O)N[C@@H](C)C(=O)N[C@@H](CO)C(=O)N1CCC[C@H]1C(=O)N[C@@H](CCC(=O)O)C(=O)N[C@@H](CCC(=O)O)C(=O)N[C@@H](CC(C)C)C(=O)N[C@@H](CCC(N)=O)C(=O)N[C@@H](CCCNC(=N)N)C(=O)N[C@@H](Cc1ccc(O)cc1)C(=O)N[C@@H](Cc1ccc(O)cc1)C(=O)N[C@H](C(=O)N[C@@H](CCC(N)=O)C(=O)N[C@@H](CC(C)C)C(=O)N[C@@H](CCCNC(=N)N)C(=O)N[C@@H](Cc1c[nH]cn1)C(=O)N[C@@H](Cc1ccc(O)cc1)C(=O)N[C@@H](Cc1ccc(O)cc1)C(=O)N[C@@H](CC(N)=O)C(=O)N[C@@H](Cc1c[nH]c2ccccc12)C(=O)N[C@@H](CC(C)C)C(=O)N[C@H](C(=O)N[C@@H](CCCNC(=N)N)C(=O)N[C@@H](CCC(N)=O)C(=O)N[C@@H](CCCNC(=N)N)C(=O)N[C@@H](Cc1ccc(O)cc1)C(N)=O)[C@@H](C)O)C(C)C [Compound 59, N{alpha-4}-(3-methylbutanoyl)-N{epsilon-7}-(6-[(4S)-4-carboxy-4-(17-carboxyheptadecanamido)butanamido]hexanoyl)-[4A,6A,7K,9E,18Q,22V,23Q,28Y,30W,31L]-hPYY(4-36)]
10.0	>10.0	1.54	CC[C@H](C)[C@H](NC(=O)[C@H](CCC(=O)O)NC(=O)[C@H](CCC(=O)O)NC(=O)[C@@H]1CCCN1C(=O)[C@H](CCC(=O)O)NC(=O)[C@H](C)NC(=O)[C@H](CC(=O)O)NC(=O)[C@H](C)NC(=O)[C@H](CCC(=O)O)NC(=O)[C@@H]1CCCN1C(=O)[C@H](CCCCNC(=O)CCCCCNC(=O)CC[C@H](NC(=O)CCCCCCCCCCCCCCCCC(=O)O)C(=O)O)NC(=O)[C@H](CCC(=O)O)NC(=O)[C@@H]1CCCN1C(=O)[C@H](C)NC(=O)CC(C)C)C(=O)N[C@@H](CCC(N)=O)C(=O)N[C@@H](CCCNC(=N)N)C(=O)N[C@@H](Cc1ccc(O)cc1)C(=O)N[C@@H](Cc1ccc(O)cc1)C(=O)N[C@H](C(=O)N[C@@H](C)C(=O)N[C@@H](CC(C)C)C(=O)N[C@@H](CCCNC(=N)N)C(=O)N[C@@H](Cc1c[nH]cn1)C(=O)N[C@@H](Cc1ccc(O)cc1)C(=O)N[C@@H](Cc1ccc(O)cc1)C(=O)N[C@@H](CC(N)=O)C(=O)N[C@@H](Cc1c[nH]c2ccccc12)C(=O)N[C@@H](CC(C)C)C(=O)N[C@H](C(=O)N[C@@H](CCCNC(=N)N)C(=O)N[C@@H](CCC(N)=O)C(=O)N[C@@H](CCCNC(=N)N)C(=O)N[C@@H](Cc1ccc(O)cc1)C(N)=O)[C@@H](C)O)C(C)C [Compound 131, N{alpha-4}-(3-methylbutanoyl)-N{epsilon-7}-(6-[(4S)-4-carboxy-4-(17-carboxyheptadecanamido)butanamido]hexanoyl)-[4A,7K,9E,10A,13E,17I,18Q,22V,23A,28Y,30W,31L]-hPYY(4-36)]
